Reference: US7128926B2, “Ester compound and use thereof” (Incorporated Administrative Agency, National Agriculture …, priority 2002, dated 2006)

Test system: adult males of Pseudococcus cryptus
Assay: Biological assay of attracting activity using Petri dish (Table 1)
Format: in vivo
Experimental: Biological Assay of Attracting Activity Using Petri Dish […] First, two square filter papers with an area of 1 cm^2 were placed on a Petri dish with a diameter of 90 mm. Thereafter, one paper was impregnated with each of sample solutions (shown in Tables 1 and 2) (100 μl of a stock solution in the case of each fraction shown in Table 1 and a crude extract shown in Table 2, and 10 μl of a stock solution in the case of an acetylated product shown in Table 2), and it was defined as a treated group. The other paper was impregnated with only a solvent (100 μl), and it was defined as a control group. […] The Petri dish was then capped. Approximately 10 to 60 minutes later, when the movement of the males stopped, the presence or absence of attracting activity was confirmed from the ratio of males attracted to each filter paper.

C=C(C)CC(=O)OCC1CC(C(=C)C)C1(C)C (stereo not shown) [formula (I), 3-isopropenyl-2,2-dimethylcyclobutylmethyl 3-methyl-3-butenoate]
attracting activity towards adult males of Pseudococcus cryptus (in words): activity of attracting adult males of Pseudococcus cryptus
